Reference: patent US8003649B2 (AstraZeneca AB, priority 2007, dated 2011)

These compounds were tested against T1, Androgen Receptor (AR) (Homo sapiens, UniProt P10275, T878A) (assay: LNCaP Androgen Receptor Down-regulation Cell Assay (immunofluorescence end point)). Conditions: LNCaP prostate carcinoma cells, compound incubation 20-22 hours, 50% reduction of the AR signal; read-out: Androgen Receptor Down-regulation Assay (a) IC50/μM.
T1 construct: cell based immuno-fluorescence assay using the LNCaP prostate epithelial cell line; endogenous in cells; host or cells: LNCaP clone FGC (ATCC CRL-1740)
T1 sequence (P10275 1-920 T878A): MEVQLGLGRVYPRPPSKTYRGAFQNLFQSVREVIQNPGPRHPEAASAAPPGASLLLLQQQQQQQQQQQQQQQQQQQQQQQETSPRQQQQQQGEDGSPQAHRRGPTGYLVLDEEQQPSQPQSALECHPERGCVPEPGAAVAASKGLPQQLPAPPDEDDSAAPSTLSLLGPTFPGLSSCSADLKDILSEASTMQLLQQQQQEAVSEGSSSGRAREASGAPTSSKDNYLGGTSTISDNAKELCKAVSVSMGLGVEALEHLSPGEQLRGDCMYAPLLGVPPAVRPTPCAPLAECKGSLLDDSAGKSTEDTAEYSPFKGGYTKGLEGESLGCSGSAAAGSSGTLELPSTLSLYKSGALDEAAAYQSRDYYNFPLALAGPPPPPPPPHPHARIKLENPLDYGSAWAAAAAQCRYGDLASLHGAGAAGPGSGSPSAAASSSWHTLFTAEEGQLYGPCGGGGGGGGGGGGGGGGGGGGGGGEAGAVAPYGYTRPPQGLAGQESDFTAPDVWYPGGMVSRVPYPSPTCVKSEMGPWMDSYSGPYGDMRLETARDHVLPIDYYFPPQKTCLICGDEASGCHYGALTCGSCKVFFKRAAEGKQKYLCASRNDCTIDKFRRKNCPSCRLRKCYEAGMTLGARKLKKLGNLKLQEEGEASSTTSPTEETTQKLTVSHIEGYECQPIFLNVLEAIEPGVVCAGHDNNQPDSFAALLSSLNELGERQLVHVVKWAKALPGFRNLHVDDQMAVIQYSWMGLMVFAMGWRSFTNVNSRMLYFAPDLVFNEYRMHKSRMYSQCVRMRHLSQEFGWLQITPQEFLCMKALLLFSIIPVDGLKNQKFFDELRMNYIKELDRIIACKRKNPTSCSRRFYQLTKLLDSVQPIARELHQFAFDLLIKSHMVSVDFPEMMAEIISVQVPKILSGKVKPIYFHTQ
Type: cell-based
Description: The ability of compounds to reduce Androgen Receptor (AR) numbers was assessed in a cell based immuno-fluorescence assay using the LNCaP prostate epithelial cell line.
a) LNCaP Androgen Receptor Down-regulation Cell Assay
A 5 ml volume of Growth Medium was added to each flask (as above except that 5% (v/v) charcoal stripped FBS (HyClone Code no. SH30068.03) was included instead of 10% (v/v) FBS). Cells were syringed at least twice using a sterile 18G×1.5″ (1.2×40 mm) broad gauge needle and cell density was measured using a haemocytometer.
Test data reported herein was generated using two different compounds preparation and dosing methods. In method (1) a 10 mM compound stock solution in 100% (v/v) DMSO was serially diluted in 4-fold steps in 100% (v/v) DMSO using a Thermo Scientific Matrix SerialMate. The diluted compounds were then further diluted 1 in 30 in assay media using a Thermo Scientific Matrix PlateMate and a 10 μl aliquot of this dilution was dosed to cells manually using a multi-channel pipette. In method (2) starting with a 10 mM compound stock solution, the Labcyte Echo 550 was used to generate a compound concentration response set diluted in 30 μl of assay media. The Echo 550 is a liquid handler that uses acoustic technology to perform direct microplate-to-microplate transfers of DMSO compound solutions. The system can be programmed to transfer volumes as low as […] in multiple increments between microplates and in so doing generates a serial dilution of compound which is then back-filled to normalise the DMSO concentration across the dilution range. A 10 μl volume of diluted compound is then dosed to cells using a Thermo Scientific Matrix PlateMate.
Plates were incubated overnight at 37° C., 5% CO2. Wells were then dosed with compound prepared by one of the 2 methods above and further incubated for 20-22 hours at 37° C., 5% CO2. […] This fixative solution was removed and cells were washed with 250 μl of PBS/0.05% (v/v) Tween 20 (PBST) using an automated plate washer. This process was then repeated twice more.
Immunostaining was performed at room temperature. Cells were permeabilised by the addition of 35 μl of PBS containing 0.5% Tween 20 and incubated for 1 hour at room temperature. Permeabilisation solution was removed and cells were washed with 250 μl of PBST using an automated plate washer. This process was then repeated twice more. 35 μl of Blocking Solution (PBST containing 3% (w/v) Marvel dried skimmed milk (Nestle)) was added to each well and plates were incubated at room temperature for a minimum of 1 hour. […] Then this primary antibody solution was removed from the wells followed by 3×100 μl PBST washes using a plate washer. […] Henceforth, wherever possible, plates were protected from light exposure. The plates were incubated for 1 hour and then the secondary antibody solution was removed from the wells followed by 3×100 ul PBST washes using a plate washer. Then 50 μl of PBST was added to each well and plates were covered with a black plate seal and stored at 4° C. before being read. Plates were read within six hours of completing the immunostaining.
The Green Fluorescent AR-associated signal in each well was measured using an Acumen Explorer HTS Reader (TTP Labtech Ltd., Cambridge). […] The instrument is a laser-scanning fluorescence microplate cytometer which samples the well at regular intervals and uses threshold algorithms to identify all fluorescent intensities above the solution background without the need to generate and analyse an image. These fluorescent objects can be quantified and provide a measure of the AR levels in cells. Fluorescence dose response data obtained with each compound was exported into a suitable software package (such as Origin) to perform curve fitting analysis. Down-regulation of AR levels was expressed as an IC50 value.

Compared with FC(F)C(F)(F)c1nnc2ccc(N3CCN(C(c4ccccc4)c4ccccc4)CC3)nn12 [Example 1, 6-(4-benzhydrylpiperazin-1-yl)-3-(1,1,2,2-tetrafluoroethyl)-[1,2,4]triazolo[4,3-b]pyridazine], FC(F)(F)c1nnc2ccc(N3CCN(C(c4ccccc4)c4ccccc4)CC3)nn12 [Example 22, 6-(4-benzhydrylpiperazin-1-yl)-3-(trifluoromethyl)-[1,2,4]triazolo[4,3-b]pyridazine] is 2.4-fold lower in DC50: 3.4 µM for the first, 1.4 µM for the second.

FC(F)C(F)(F)c1nnc2ccc(N3CCCN(Cc4ccccc4)CC3)nn12 [Example 2, 6-(4-benzyl-1,4-diazepan-1-yl)-3-(1,1,2,2-tetrafluoroethyl)-[1,2,4]triazolo[4,3-b]pyridazine] and FC(F)c1nnc2ccc(N3CCCN(Cc4ccccc4)CC3)nn12 [Example 6, 6-(4-benzyl-1,4-diazepan-1-yl)-3-(difluoromethyl)-[1,2,4]triazolo[4,3-b]pyridazine] are within 1.5-fold of each other in DC50: 8.3 µM for the first, 7.5 µM for the second.

FC(F)c1nnc2ccc(N3CCN(C(c4ccccc4)c4ccccc4)CC3)nn12 [Example 5, 6-(4-benzhydrylpiperazin-1-yl)-3-(difluoromethyl)-[1,2,4]triazolo[4,3-b]pyridazine] and Clc1nnc2ccc(N3CCN(C(c4ccccc4)c4ccccc4)CC3)nn12 [Example 8, 6-(4-benzhydrylpiperazin-1-yl)-3-chloro-[1,2,4]triazolo[4,3-b]pyridazine] are within 1.5-fold of each other in DC50: 1.6 µM for the first, 1.7 µM for the second.

Going from CSc1nnc2ccc(N3CCN(C(c4ccccc4)c4ccccc4)CC3)nn12 [Example 9, 6-(4-benzhydrylpiperazin-1-yl)-3-methylsulfanyl-[1,2,4]triazolo[4,3-b]pyridazine] to COc1ccc(C(c2ccccc2)N2CCN(c3ccc4nnc(C(F)(F)F)n4n3)CC2)cc1 (centres unmarked) [Example 25, 6-[4-[(4-methoxyphenyl)-phenylmethyl]piperazin-1-yl]-3-(trifluoromethyl)-[1,2,4]triazolo[4,3-b]pyridazine], the DC50 falls from 1.7 µM to 1.1 µM (1.5-fold).

Compared with FC(F)(F)c1nnc2ccc(N3CCN(c4ccc(Br)cn4)CC3)nn12 [Example 11, 6-[4-(5-bromopyridin-2-yl)piperazin-1-yl]-3-(trifluoromethyl)-[1,2,4]triazolo[4,3-b]pyridazine], Cc1cccc(C)c1N1CCN(c2ccc3nnc(C(F)(F)F)n3n2)CC1 [Example 16, 6-[4-(2,6-dimethylphenyl)piperazin-1-yl]-3-(trifluoromethyl)-[1,2,4]triazolo[4,3-b]pyridazine] is 3.2-fold lower in DC50: 2.5 µM for the first, 0.77 µM for the second.

Going from Cc1cc(N2CCN(Cc3ccc(C#N)cc3)CC2)nn2c(C(F)(F)F)nnc12 [Example 12, 4-((4-(8-Methyl-3-(trifluoromethyl)-[1,2,4]triazolo[4,3-b]pyridazin-6-yl)piperazin-1-yl)methyl)benzonitrile] to Cc1cc2nnc(C(F)(F)F)n2nc1N1CCN(Cc2ccc(C#N)cc2)CC1 [Example 13, 4-((4-(7-Methyl-3-(trifluoromethyl)-[1,2,4]triazolo[4,3-b]pyridazin-6-yl)piperazin-1-yl)methyl)benzonitrile], the DC50 rises from 4.3 µM to 8.4 µM (2-fold).

First: FC(F)(F)c1nnc2ccc(N3CCN(Cc4ccc(Cl)cc4)CC3)nn12 [Example 14, 6-[4-[(4-chlorophenyl)methyl]piperazin-1-yl]-3-(trifluoromethyl)-[1,2,4]triazolo[4,3-b]pyridazine]
Second: COc1ccc(CN2CCN(c3ccc4nnc(C(F)(F)F)n4n3)CC2)cc1 [Example 15, 6-[4-[(4-methoxyphenyl)methyl]piperazin-1-yl]-3-(trifluoromethyl)-[1,2,4]triazolo[4,3-b]pyridazine]
The DC50 of the first is 3.6-fold lower: 0.69 µM for the first, 2.5 µM for the second.

First: CC(=O)c1ccc(N2CCN(c3ccc4nnc(C(F)(F)F)n4n3)CC2)cc1 [Example 17, 1-[4-[4-[3-(trifluoromethyl)-[1,2,4]triazolo[4,3-b]pyridazin-6-yl]piperazin-1-yl]phenyl]ethanone]
Second: O=[N+]([O-])c1ccc(N2CCN(c3ccc4nnc(C(F)(F)F)n4n3)CC2)cc1 [Example 21, 6-[4-(4-nitrophenyl)piperazin-1-yl]-3-(trifluoromethyl)-[1,2,4]triazolo[4,3-b]pyridazine]
The DC50 of the first is 9.3-fold higher: 2.5 µM for the first, 0.27 µM for the second.

Going from FC(F)(F)c1nnc2ccc(N3CCN(c4c(Cl)cncc4Cl)CC3)nn12 [Example 19, 6-[4-(3,5-dichloropyridin-4-yl)piperazin-1-yl]-3-(trifluoromethyl)-[1,2,4]triazolo[4,3-b]pyridazine] to Fc1ccc(N2CCN(c3ccc4nnc(C(F)(F)F)n4n3)CC2)c(F)c1 [Example 29, 6-[4-(2,4-difluorophenyl)piperazin-1-yl]-3-(trifluoromethyl)-[1,2,4]triazolo[4,3-b]pyridazine], the DC50 rises from 0.52 µM to 4.2 µM (8.1-fold).

First: O=C1NCN(c2ccccc2)C12CCN(c1ccc3nnc(C(F)(F)F)n3n1)CC2 [Example 20, 1-phenyl-8-[3-(trifluoromethyl)-[1,2,4]triazolo[4,3-b]pyridazin-6-yl]-1,3,8-triazaspiro[4.5]decan-4-one]
Second: FC(F)(F)c1nnc2ccc(N3CCN(CCc4ccccc4)CC3)nn12 [Example 23, 6-(4-phenethylpiperazin-1-yl)-3-(trifluoromethyl)-[1,2,4]triazolo[4,3-b]pyridazine]
The DC50 of the first is 4-fold higher: 1.8 µM for the first, 0.45 µM for the second.

Going from O=C(CN1CCN(c2ccc3nnc(C(F)(F)F)n3n2)CC1)N1CCCCC1 [Example 24, 1-piperidin-1-yl-2-[4-[3-(trifluoromethyl)-[1,2,4]triazolo[4,3-b]pyridazin-6-yl]piperazin-1-yl]ethanone] to FC(F)(F)c1ccc(C(c2ccccc2)N2CCN(c3ccc4nnc(C(F)(F)F)n4n3)CC2)cc1 (centres unmarked) [Example 26, 6-[4-[phenyl-[4-(trifluoromethyl)phenyl]methyl]piperazin-1-yl]-3-(trifluoromethyl)-[1,2,4]triazolo[4,3-b]pyridazine], the DC50 falls from over 26 µM to 1 µM.

Cc1cc(NCC2CC[C@@H]3CN(c4ccc5nnc(C(F)(F)F)n5n4)CCN3C2)c2ccccc2n1 (stereo partly drawn) [Example 28, N-[[(9aR)-2-[3-(trifluoromethyl)-[1,2,4]triazolo[4,3-b]pyridazin-6-yl]-1,3,4,6,7,8,9,9a-octahydropyrido[1,6-a]pyrazin-7-yl]methyl]-2-methylquinolin-4-amine] was tested, and the DC50 was 2.8 µM.
